# In patent publication US20260207581A1, “Small Molecule Inhibitor for Inflammatory Pain Inhibition” (University of Rochester, priority 2023, published 2026):
# “Also recorded” adds a separate entry of the source.
# Assays:
# [1] = tested on: inflammatory genes, matrix proteins, adhesion molecules and neuropeptides in TMJ tissues; experiment: qRT-PCR analysis of gene expression in TMJ tissues of the CFA model; format: in vivo, rat
# Method: To see if this reduction in inflammation and its associated damage could provide therapeutic benefit, the ability of PFI-2 to reduce inflammatory pain was examined. Animals were injected with saline or CFA and meal duration, a proxy for pain, was examined over a span of 21 days post-injection. […] Calcitonin gene-related peptide (CGRP) localization and expression in the synovial membrane were examined by immunostaining, where it was observed that CGRP was localization in synovial cells and neurons was increased in animals treated with CFA (FIG. 4C and FIG. 4D).
# Expression of Osteogenic, Chondrogenic and Inflammatory Genes in a TMD model: To generate benchmark data for functional and mechanistic studies TMJ discs, synovia, and condyles are dissected and mRNA and protein expression levels of bone marker genes measured, including collagen type I (Col I), alkaline phosphatase (Alp), Runx2, Osterix (Osx), osteocalcin (Ocn), and bone sialoprotein (Ibsp), as well as cartilage marker genes such as collagen II, Sox 9, Col X, and biglycans. To characterize the effect of the YAP upregulator PFI-2 on inflammation and osteoclast formation, the expression of inflammatory cytokines (IL-1b, IL-6, TNF-α), NF-κB, MMPs (MMP2, MMP9 and MMP13), adhesion molecules (CDH11, ICAM, Integrin β1), and osteoclastogenesis-related genes (Rank, Rankl, Opg, Trap5b, and NFATc1) is detected using quantitative RT-PCR and Western blotting as described by Walker et al. (2010). Localization of these genes in the inflamed TMJ is further specified using immunofluorescence.
# Inflammatory Changes in the Expression of Neuropeptides CGRP, NPY and SP1 in vivo and in vitro: For in vivo studies, rat TMJ discs, synovial membrane, condyle, trigeminal ganglia and trigeminal nucleus caudalis are collected bilaterally from saline-or CFA-treated rats for RNA and protein isolation, and histological analysis. The expression of CGRP, NPY, TAC1, and Galanin (GAL) at gene and protein levels are measured using qRT-PCR and Western blotting. For histology, tissues are fixed in 4% paraformaldehyde and prepared for paraffin sections as described previously (Lu et al, 2016a, b). Cells and neurons positive for CGRP, NPY, SP1 (an isoform of TAC1 protein) and Gal are visualized via immunofluorescence or immunohistochemistry using antibodies against CGRP, GAL, NYP, and TAC1 (Abcam). Expression levels of these genes and the numbers of immunoreactive cells are compared between different treatment groups.
# [2] = tested on: YAP1; experiment: YAP / Sox9 immunolocalization in TMJ discs and condylar growth plate of the CFA model; format: in vivo, rat
# Method: Because of this initial success, it was further examined if PFI-2 treatment could rescue inhibition of chondrocyte maturation and return YAP expression in the condylar growth plate of animals suffering from inflammation. To test the ability to repair damage, animals were injected with saline or CFA. After inflammation, a subset of the CFA-treated animals were also injected with PFI-2. Tissue samples from each were stained with H&E, safranin O, and PCNA, YAP was detected by immunostaining, and cartilage differentiation was determined by immunostaining for Sox 9 (FIG. 3A-FIG. 3O). The samples were also examined by RT-PCR for expression levels of collagen 2, collagen 10, Mmp 13 metalloproteinase, Runx2 bone transcription factor, and Sox 9 (FIG. 3P).
# Here, the role of the Hippo pathway effectors YAP and TAZ is elucidated in an inflammatory TMD models. YAP and TAZ interact with DNA-binding factors of the TEAD family in the nucleus to regulate gene expression. […] First, the expression and subcellular localization of YAP is characterized under physiological and inflammatory conditions in TMJ tissues, RSSCs and RCs. The expression pattern of the YAP protein in TMJ tissues are elucidated by immunohistochemistry using anti-YAP antibody and the expression levels of YAP mRNA and protein is determined using qRT-PCR and Western blotting. […]
# [3] = tested on: SETD1, IL-6 and MMP2 expression; experiment: qRT-PCR and Western blotting of selected inflammatory genes under TNFα; format: cell-based, rat
# [4] = tested on: RSSCs; experiment: BrdU labeling and β-gal senescence staining of TNF-α treated RSSCs; format: cell-based, rat; conditions: RSSCs treated with TNFα
# [5] = tested on: inflammatory TMD pain; experiment: Place escape/avoidance paradigm (PEAP) pain behavior in inflammatory TMD model; format: in vivo, rat; conditions: for time spent in the dark half of the PEAP chamber: CFA plus PFI-2 injection
# Method: Effect of PFI-2 Mediation on Inflammatory Conditions and Pain: Tmj pain is assessed as meal duration and via Place Escape Avoidance Paradigm (PEAP)-based measures (FIG. 1, Vertebrate Justification section). Testing is performed in both male and female rats as sex differences have been observed in humans and animals. Female animals are tested for the estrous cycle and the results are reported for the di-estrus, estrus, and pro-estrus phases (Kramer, Bellinger, 2009).
# Peap Testing: the Chamber Used for the Place Escape Avoidance Paradigm (PEAP) testing is a 30 cm×30 cm acrylic box in which half the box is covered in black cloth. Each individual rat is placed into the chamber; due to their nocturnal circadian rhythm, rodents prefer the dark side of the chamber. Rats on the dark side of the chamber receive a stimulus at the injected side, whereas rats with their head on the clear side of the chamber are stimulated on the contralateral non-injected side with a 60 g filament every 15 seconds. The stimulus is administered below the eye and caudal to the whisker pad. The time spent on the dark side of the box is recorded in 5 min bins, testing is performed for a total of 30 min on the test day and thereafter on a one day a week basis for 8 weeks as previously described (Stinson et al. 2017; 2019).
# Injection of PFI-2-Col I, PFI-2-decm Hydrogel and PFI-2-exosome solution into the TMJ: Four groups (SV, SP, CV, and CP) receive injections of the saline plus carrier, saline plus PFI-2 carrier, CFA plus carrier, or CFA plus PFI-2 carrier, respectively. The TMJ injection procedure is described in FIG. 1. Forty-eight hours after the injection of saline or CFA solution, PFI-2 (10 μM) in a carrier, or the carrier alone, is injected every two days, or once within 10 days. The injection times and effect duration of PFI-2 on both inflammatory degeneration and pain are optimized.
# PEAP behavior of animals was investigated after administration of saline, CFA, or CFA and a PFI-2 carried by either a Col I hydrogel or a dECM hydrogel.
# [6] = molecular target: T1, SETD7 (Rattus norvegicus, UniProt A0A8I6A0F7); experiment: SETD7 and YAP localization and protein methylation in TNF-α treated RSSCs; format: cell-based; conditions: RSSCs treated with TNF-α
# T1 construct: endogenous in cells; host or cells: primary rat synovial mesenchymal stem cells (RSSCs)
# Method: As a first step, the expression and localization of SETD7 and YAP are examined in RCs and RSSCs at the mRNA and protein level under physiological and inflammatory conditions. RCs and RSSCs are cultured with or without TNF-α for 6, 12, and 24 hours. Proteins and mRNAs from cultured cells are isolated for RT-PCR and Western Blot analyses. The localization of SETD7 and YAP in relationship toward each other is visualized by immunofluorescence, and the methylation levels and distribution of YAP in nuclei and cytoplasm are determined by Western blotting using anti-SETD7 and anti-YAP antibodies (Abcam). To determine whether YAP and SETD7 interact, co-immunoprecipitation assays is performed, and the degree of interaction between SETD7 and YAP is compared between TNF-α-treated cells and control cells (Ito et al. 2011).
# Rat synovial mesenchymal stem cells (RSSCs) were cultured and examined for SETD7 nuclear localization.
# [7] = tested on: TNFα-induced cell infiltration; experiment: Subcutaneous implantation of coated collagen sponges; format: in vivo; conditions: sponges coated with TNFα plus PFI-2
# Source text: In vivo analysis was examined by subcutaneous implantation of collagen sponges coated with PBS, TNF-α, or TNF-α and PFI-2.
# [8] = tested on: IL-1β expression; experiment: Cultured condyle organs treated with IL-6, IL-1β immunostaining; format: cell-based; conditions: IL-6 plus PFI-2
# [9] = tested on: TMJ tissues; experiment: CFA injection rat model of inflammatory TMD: swelling, uCT and histology of TMJ tissues; format: in vivo
# [10] = molecular target: T2, SETD7 (Homo sapiens, UniProt Q8WTS6); conditions: Francis et al. 2018; cited from earlier work
# T2 sequence (Q8WTS6 1-366): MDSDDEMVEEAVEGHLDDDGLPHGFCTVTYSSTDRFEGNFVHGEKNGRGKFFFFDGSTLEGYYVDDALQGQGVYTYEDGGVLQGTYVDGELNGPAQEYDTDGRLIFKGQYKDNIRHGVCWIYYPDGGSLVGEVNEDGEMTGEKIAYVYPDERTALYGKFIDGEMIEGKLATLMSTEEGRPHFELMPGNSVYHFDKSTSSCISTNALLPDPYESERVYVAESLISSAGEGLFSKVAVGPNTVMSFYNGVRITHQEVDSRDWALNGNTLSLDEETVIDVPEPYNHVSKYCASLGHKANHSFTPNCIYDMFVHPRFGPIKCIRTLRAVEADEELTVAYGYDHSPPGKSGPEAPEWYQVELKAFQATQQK
# [11] = PFI-2 injected following CFA induction of inflammatory conditions
# T1 sequence (A0A8I6A0F7 1-367): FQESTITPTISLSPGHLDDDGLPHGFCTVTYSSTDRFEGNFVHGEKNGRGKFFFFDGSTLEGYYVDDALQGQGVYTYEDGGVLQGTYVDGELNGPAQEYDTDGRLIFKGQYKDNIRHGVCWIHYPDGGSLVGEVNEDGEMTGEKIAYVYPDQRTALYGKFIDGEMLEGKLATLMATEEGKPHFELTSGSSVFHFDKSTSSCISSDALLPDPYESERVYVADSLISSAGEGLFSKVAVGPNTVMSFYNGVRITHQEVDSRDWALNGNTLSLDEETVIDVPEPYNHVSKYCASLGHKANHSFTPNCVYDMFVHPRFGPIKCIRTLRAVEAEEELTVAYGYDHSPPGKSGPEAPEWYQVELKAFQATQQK
smiles,measurement,setting,value
O=C([C@@H](Cc1cccc(C(F)(F)F)c1)NS(=O)(=O)c1cc(F)c2c(c1)CCNC2)N1CCCC1 [PFI-2],"expression of CGRP, NPY and TAC in TMJ tissues (qRT-PCR)",[1]; CFA-PFI-treated (CP) vs CFA-treated (CV),reduced to near-normal levels
same,"expression of CGRP, NPY and TAC in TMJ tissues (qRT-PCR)","[1]; CFA-PFI-treated (CP) vs CFA-treated (CV), listed as PFI",almost reduced to normal levels
same,inflammatory gene / cytokine expression in TMD tissues (qRT-PCR),"[1]; rats, CFA model",inhibited the expression of inflammatory cytokines; also recorded: downregulated inflammatory gene expression
same,matrix protein and adhesion molecule expression in TMJ tissues (qRT-PCR),"[1]; rats, CFA-PFI-treated (CP) vs CFA-treated (CV)",reversed the upregulation
same,YAP expression and localization in the condylar growth plate,[2]; [11],rebalance YAP1 expression; also recorded: re-localized YAP1 and SOX9 proteins; also recorded: returned YAP expression
same,YAP1 immunolocalization in TMJ discs,"[2]; rats, CFA model",translocated YAP into nuclei
same,TNFα-induced gene dysregulation (Western blotting),[3],confirmed
same,"TNFα-induced upregulation of SETD1, IL-6 and MMP2 expression (qRT-PCR)","[3]; PFI-2 at 1, 10, and 50 μM",inhibited by treatment with PFI-2 in a dose-dependent manner; also recorded: inhibited TNFα-induced upregulation in a dose-dependent manner
same,BrdU positive proliferating cells,[4],restored the proliferative potential of inflammation-compromised cells; also recorded: restored cellular proliferation
same,β-gal+ cell senescence,[4],inhibited TNFα-induced cell senescence
same,time spent in the dark half of the PEAP chamber,[5]; collagen gel (Col I hydrogel) as carrier,significantly rescued; also recorded: significantly increased
same,time spent in the dark half of the PEAP chamber,"[5]; dECM hydrogel as carrier, compared with collagen carrier",far more significant; also recorded: further improved
same,inflammatory pain,[5]; inflammatory TMD model,greatly reduced pain; also recorded: reduction in inflammatory pain; also recorded: reduced inflammatory pain
same,time on the dark side of PEAP chambers,[5]; mice subjected to inflammatory temporo-mandibular joint pain,dramatically reduced time
same,SETD7 nuclear localization,[6],blocked the effect of TNF-α on SETD7 nuclear localization
same,global protein methylation levels in whole cell lysates (Western blot),[6],reduces methylation; also recorded: inhibited this effect
same,cell infiltration into collagen sponges,[7],reversed inflammatory cell infiltration in tissue implants; also recorded: reversed this effect
same,extracellular matrix remodeling in collagen sponges,[7],promoted extracellular matrix remodeling; also recorded: promoted ECM remodeling
same,IL-1β expression (immunostaining),[8],inhibited the expression of IL-18; also recorded: inhibited IL-1β expression
same,swelling of the articular surface (thickness of fibrous and proliferative cell zones),[8],reversed the swelling of the articular surface
same,inflammation-induced retardation of chondrocyte differentiation / condylar growth plate structure,[9]; [11],able to reverse it; also recorded: restored condyle growth plate structure and function; also recorded: reversed
same,"bone volume, mechanical properties and thickness of functional condyle layers","[9]; inflammatory conditions, three PFI-2 delivery modalities",restores outcomes to near-physiological values
same,regional swelling / distance between the two ear tragi,"[9]; rats, 48 hours after injection, CFA-induced (10% increase with CFA)",no swelling was observed
same,collagen fibers in the TMJ disc (Pico Sirius red staining),"[9]; rats, CFA model","lightened; also recorded: conversion to light red, thinner fibers"
same,structure and function of fibrocartilage in the TMJ (H&E),"[9]; rats, CFA model",rescued the structure and function of fibrocartilage
same,thickness of the fibrous and proliferative cell layers / hypertrophic zones (H&E),"[9]; rats, CFA model",rescued; also recorded: reduced
same,TMJ disc thickening and fusion with the condyle (H&E),"[9]; rats, CFA model, paraffin-embedded TMJ tissues",rescued; also recorded: detachment of the TMJ disc and condyle
same,condylar bone volume and joint space between temporal fossa and condyle (uCT),"[9]; rats, CFA plus PFI-2 injection",rescued
same,fibrous adhesion of TMJ disc and condylar surface (Masson trichrome),"[9]; rats, CFA-induced inflammation",prevented the attachment; also recorded: released fibrous adhesion; also recorded: de-attached the TMJ disc from the condyle
same,inflammation and tissue regeneration in periodontal diseases,[10],suppresses inflammation and promotes tissue regeneration
